Laboratory results from patent US20110008461A1 (priority 2008, published 2011).
Values joined by “and” are separate entries in the source; they are usually repeats but may differ in a detail not shown here. Equal entries are not always repeated. Structures can show the parent of a compound that is named as a salt. Where two headings read alike, the source gives them in different places. Marks after values point to notes of the source that are not given here.

Columns and labels:
[1] = biological target: T1, Rat Liver Cytosolic Phosphoenolpyruvate Carboxykinase (Rattus norvegicus, UniProt P07379); assay: Continuous spectrophotometric PEPCK inhibition assay coupled to malate dehydrogenase (preliminary screen, inhibition patterns, Dixon plots); details: for Inhibition of PEPCK (in words): against PEP;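 as to all read-outs here: PEPCK activity followed continuously via malate dehydrogenase coupling, where OAA reduction consumes NADH, seen as falling absorbance at 340 nm, run at 35 °C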
T1 sequence (P07379 1-622): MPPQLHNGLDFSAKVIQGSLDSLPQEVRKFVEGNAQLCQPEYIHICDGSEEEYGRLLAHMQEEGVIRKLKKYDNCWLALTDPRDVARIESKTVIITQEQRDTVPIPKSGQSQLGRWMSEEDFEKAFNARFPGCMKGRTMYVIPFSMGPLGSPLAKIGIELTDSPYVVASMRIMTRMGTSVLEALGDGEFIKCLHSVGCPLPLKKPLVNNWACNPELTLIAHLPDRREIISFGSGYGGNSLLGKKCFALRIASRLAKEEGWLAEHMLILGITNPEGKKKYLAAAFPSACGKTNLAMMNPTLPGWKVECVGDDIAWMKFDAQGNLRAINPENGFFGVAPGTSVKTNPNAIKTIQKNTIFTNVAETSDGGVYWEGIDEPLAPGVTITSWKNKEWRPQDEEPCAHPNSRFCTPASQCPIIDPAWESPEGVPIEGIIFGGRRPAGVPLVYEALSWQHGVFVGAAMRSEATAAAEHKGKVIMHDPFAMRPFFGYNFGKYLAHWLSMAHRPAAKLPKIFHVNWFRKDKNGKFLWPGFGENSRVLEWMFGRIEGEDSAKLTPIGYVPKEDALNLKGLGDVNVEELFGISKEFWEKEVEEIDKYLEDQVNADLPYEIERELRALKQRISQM
Method: TES (pH 7.2), 7.5% glycerol (v:v), 0.2 mM EDTA.
The inhibition of PEPCK by various compounds was evaluated using a continuous spectrophotometric assay in which the coupling enzyme, malate dehydrogenase, reduced OAA to malate concomitant with the oxidation of NADH to NAD^+. The decrease in absorbance at 340 nm was monitored using a Beckman DU-70 Spectrophotometer equipped with a temperature controller. The standard 1-mL reaction mixture for the production of OAA contained 56 mM HEPES-KOH buffer (pH 7.0), 1 mM IDP (or alternatively, 0.1 mM GDP), 23 U malate dehydrogenase (1 unit of malate dehydrogenase is defined as 1 mole malate produced/min/mg protein), 0.25 mM NADH, 2.3 mM MnCl2, and 48 mM NaHCO3. […] All assay components except PEPCK were preincubated in the cuvette for 3 min at 35° C., the standard assay temperature.
The kinetic parameters for the inhibition studies were best fit to the equations for competitive inhibition (Eq. 1) and noncompetitive inhibition (Eq. 2), using the computer program and nomenclature of Cleland (Cleland, W. W. (1979) Statistical analysis of enzyme kinetic data. Methods Enzymol 63, 103-138).
v=VA/[K(1+1/Kis)+A] (Eq. 1)
v=VA/[K(1/Kis)+A(1+1/Kii)] (Eq. 2)
The parameters are defined as follows: v is the initial velocity, V is the maximal rate of product formation in the absence of inhibitor, A is the concentration of the variable substrate, K is the apparent Michaelis constant for the varied substrate, and Kis and Kii are the inhibition constants.

[2] = biological target: PEPCK; details: cited from earlier work
[3] = biological target: T2, cytosolic PEPCK (Rattus norvegicus, UniProt P07379); assay: Kinetic data for MPA binding to the allosteric site of PEPCK; type: biochemical
T2 sequence (P07379 1-622): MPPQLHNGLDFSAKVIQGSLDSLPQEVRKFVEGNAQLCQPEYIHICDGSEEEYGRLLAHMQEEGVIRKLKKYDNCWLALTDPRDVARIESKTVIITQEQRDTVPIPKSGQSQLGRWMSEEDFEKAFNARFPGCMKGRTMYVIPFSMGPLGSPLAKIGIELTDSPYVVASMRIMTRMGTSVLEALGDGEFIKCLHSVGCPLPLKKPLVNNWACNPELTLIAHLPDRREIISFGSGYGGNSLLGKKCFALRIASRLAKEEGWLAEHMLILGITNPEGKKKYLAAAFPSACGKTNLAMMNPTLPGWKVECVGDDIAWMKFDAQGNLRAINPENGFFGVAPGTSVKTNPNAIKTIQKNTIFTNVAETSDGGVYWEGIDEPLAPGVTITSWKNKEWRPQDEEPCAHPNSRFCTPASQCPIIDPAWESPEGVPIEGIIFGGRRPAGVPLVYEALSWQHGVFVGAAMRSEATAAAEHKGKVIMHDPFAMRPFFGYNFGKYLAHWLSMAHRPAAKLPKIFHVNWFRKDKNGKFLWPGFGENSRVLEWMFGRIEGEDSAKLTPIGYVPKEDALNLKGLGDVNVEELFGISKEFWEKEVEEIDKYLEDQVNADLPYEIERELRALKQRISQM

[4] = biological target: T3, PEPCK (Rattus norvegicus, UniProt P07379); assay: Kinetic analysis of CMMP inhibition of PEPCK against PEP (FIG. 5); type: biochemical
T3 sequence (P07379 1-622): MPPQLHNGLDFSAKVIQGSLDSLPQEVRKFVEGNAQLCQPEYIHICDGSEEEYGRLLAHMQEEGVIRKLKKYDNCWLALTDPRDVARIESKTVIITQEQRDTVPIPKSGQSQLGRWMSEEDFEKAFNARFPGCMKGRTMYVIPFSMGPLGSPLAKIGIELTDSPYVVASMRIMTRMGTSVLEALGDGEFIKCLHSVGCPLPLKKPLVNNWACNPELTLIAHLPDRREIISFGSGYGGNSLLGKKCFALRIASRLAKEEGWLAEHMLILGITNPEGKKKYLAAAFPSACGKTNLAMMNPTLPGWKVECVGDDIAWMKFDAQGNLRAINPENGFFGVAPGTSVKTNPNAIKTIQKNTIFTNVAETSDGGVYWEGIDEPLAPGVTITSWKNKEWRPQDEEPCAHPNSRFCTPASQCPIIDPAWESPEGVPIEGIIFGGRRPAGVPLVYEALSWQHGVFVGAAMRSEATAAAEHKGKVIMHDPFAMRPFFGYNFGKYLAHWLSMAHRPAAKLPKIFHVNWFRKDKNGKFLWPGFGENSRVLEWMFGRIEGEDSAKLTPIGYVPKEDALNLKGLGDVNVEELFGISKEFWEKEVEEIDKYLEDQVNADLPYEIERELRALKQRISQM
Excerpt: The ‘I’ values given in the legend are the concentrations of CMMP used in uM.
This was originally supported by the inhibition of PEPCK by sulfoacetate. […] Based upon that work, we proposed a novel scaffold to be utilized in the development of molecules that bridge these two sub-sites with and in doing so would gain potency and, perhaps more importantly with a metabolic enzyme like PEPCK, specificity. This scaffold is Formulas C, E, and/or G and an example is CMMP. […] This molecule thereby gains both potency and specificity for PEPCK. […] The information obtained from FIGS. 4 and 5 indicate that derivatives of CMMP, as shown by the scaffolds of Formulas E and G, are likely to be similarly effective as CMMP.

[5] = substrate: C=C(OP(=O)(O)O)C(=O)O; assay: cells, lysate or membranes named; details: other: substrate, determined under the same assay conditions
[6] = analogue 6 mM, PEP 40 μM, preliminary screen, average of two PEPCK preparations
[7] = from Dixon plots using two PEP concentrations
[8] = analogue 3 mM, PEP 40 μM, preliminary screen, average of two PEPCK preparations
[9] = analogue 1.5 mM, PEP 40 μM, preliminary screen, average of two PEPCK preparations
[10] = PEP varied substrate, Cleland kinetics program, 35° C., pH 7.0

O=S(=O)(O)CCS(=O)(=O)O [Compound 32, 1,2-Ethanedisulfonate]
% Activity Remaining [1, 6]: 42^e % | Ki [1, 7]: ~3000 µM | Ki ([1]; from Dixon plots using two PEP concentrations, listed as 1,2-Ethanedisulfonate (32)): 3000 µM

O=C(O)/C=C/C(=O)O [Compound 6, Fumarate]
Inhibition of PEPCK (in words) [1]: did not inhibit | % Activity Remaining [1, 6]: 83^e %

C=C(CP(=O)(O)O)C(=O)O [Compound 15, 2-(Phosphonomethyl)acrylate]
Inhibition of PEPCK (in words) [1]: noninhibitory | % Activity Remaining [1, 8]: 92^c %

O=C(O)CC(=O)O [Compound 2, Malonate]
% Activity Remaining [1, 8]: 102^c %

Threonine phosphate [Compound 22]
% Activity Remaining [1, 8]: 97^c %

N[C@@H](COP(=O)(O)O)C(=O)O [Compound 21, Serine phosphate]
% Activity Remaining [1, 9]: 108^f %

NC(CCCP(=O)(O)O)C(=O)O (centres unmarked) [Compound 20, 2-Amino-5-phosphonovalerate]
% Activity Remaining [1]: 98^f %

O=C(O)CCS(=O)(=O)O [Compound 25, 3-Sulfopropionate]
Pattern of Inhibition ([1]; PEP varied substrate): Competitive | Ki [1, 10]: 3400 ± 300 µM | Inhibition of PEPCK (in words) [1]: poor inhibitor | % Activity Remaining [1, 8]: 69^c %

C=C(CC(=O)O)C(=O)O [Compound 7, Itaconate]
% Activity Remaining [1, 8]: 91^c %

O=C(O)/C=C\C(=O)O [Compound 5, Maleate]
% Activity Remaining [1, 6]: 52^e % | Ki [1, 7]: ~2000 µM | Ki ([1]; from Dixon plots using two PEP concentrations, listed as Maleate (5)): 2000 µM

O=C(O)C(=O)O [Compound 1, Oxalate]
Ki [2]: 5 to 89 µM

O=P(O)(O)CCP(=O)(O)O [Compound 30, 1,2-Ethanediphosphonate]
Pattern of Inhibition ([1]; PEP varied substrate): competitive | Ki [1, 10]: 5100 µM | Pattern of Inhibition ([1]; PEP varied substrate, listed as 1,2-Ethanediphosphonate (30)): Competitive | % Activity Remaining [1, 6]: 96^e %

O=[N+]([O-])c1ccc(OP(=O)(O)O)cc1 [Compound 35, p-Nitrophenylphosphate]
% Activity Remaining [1, 8]: 103^c %

O=C(O)CCC(=O)O [Compound 3, Succinate]
% Activity Remaining [1, 8]: 91^c % | Ki [1, 7]: > 8000 µM

O=C(O)CNCP(=O)(O)O [Compound 17, N-Phosphonomethylglycine]
% Activity Remaining [1, 8]: 104^c %

O=S(=O)(O)CS(=O)(=O)O [Compound 31, Methanedisulfonate]
Pattern of Inhibition ([1]; PEP varied substrate): noncompetitive | Pattern of Inhibition ([1]; PEP varied substrate, listed as Methanedisulfonate (31)): Noncompetitive | % Activity Remaining [1, 9]: 4^f % | Ki ([1]; read-out: Ki, intercept effect (Kii), noncompetitive, PEP varied substrate): 168 ± 25 µM | Ki ([1]; read-out: Ki, slope effect (Kis), noncompetitive, PEP varied substrate, Cleland kinetics program): 27 ± 3 µM

Phenylphosphate [Compound 34]
% Activity Remaining [1, 8]: 96^c %

O=C(O)C1CCCC1C(=O)O (centres unmarked) [Compound 8, 1,2-Cyclopentanedicarboxylate]
% Activity Remaining [1]: 91^c %

CC(C)(C(=O)O)S(=O)(=O)O [Compound 24, 2,2-Dimethylsulfoacetate]
Ki relative to sulfoacetate [1]: 25 fold | Pattern of Inhibition [1]: Competitive | % Activity Remaining [1, 8]: 65^c % | Ki ([1]; pH 7): 2100 ± 200 µM

C[C@@H]1O[C@@H]1P(=O)(O)O [Compound 33, Phosphomycin]
% Activity Remaining [1, 8]: 108^c %

NC(CCP(=O)(O)O)C(=O)O (centres unmarked) [Compound 19, 2-Amino-4-phosphonobutyrate]
% Activity Remaining [1, 8]: 104^c %

N[C@@H](CS(=O)O)C(=O)O [Compound 27, Cysteine sulfinic acid]
Inhibition of PEPCK (in words) [1]: does not cause inhibition | % Activity Remaining [1, 8]: 105^c %

O=C(O)[C@H](O)[C@@H](O)[C@H](O)[C@H](O)COP(=O)(O)O [Compound 16, 6-phosphogluconate]
Inhibition of PEPCK (in words) [1]: does not inhibit | % Activity Remaining [1, 8]: 117^c %

O=C(O)[C@@H](CO)OP(=O)(O)O [Compound 14, 2-D-Phosphoglycerate]
Inhibition of PEPCK (in words) [1]: noninhibitory | % Activity Remaining [1, 8]: 110^c %

O=C(O)CC(C(=O)O)S(=O)(=O)O (centres unmarked) [Compound 4, Sulfosuccinate]
% Activity Remaining [1]: 55^c % | Ki [1]: ~3300 µM and 3300 µM

O=P(O)(O)OP(=O)(O)O [Compound 28, Pyrophosphate]
% Activity Remaining [1]: 22^f % | Ki [1]: 172 µM | Ki ([1]; read-out: Ki, intercept effect (Kii)): 63 µM and 64 µM | Ki ([1]; read-out: Ki, slope effect (Kis)): 34 µM

N[C@@H](CS(=O)(=O)O)C(=O)O [Compound 26, Cysteic acid]
Inhibition of PEPCK (in words) [1]: even less inhibitory | % Activity Remaining [1, 8]: 76^c %

O=C(O)CP(=O)(O)O [Compound 11, Phosphonoacetate]
Inhibition of PEPCK (in words) [1]: noninhibitory | % Activity Remaining [1, 8]: 108^c %

O=C(O)c1ncccc1S [MPA, 3-mercaptopicolinic acid]
Ki ([3]; read-out: apparent affinity): ~100 µM | Pattern of Inhibition ([3]; versus nucleotide): competitive with nucleotide binding

O=C(O)CSc1cccnc1C(=O)O [CMMP, 3-carboxymethylmercaptopicolinic acid]
Ki [4]: 12 µM | Pattern of Inhibition ([4]; against PEP): competitive

N[C@@H](CC(=O)O)C(=O)O [Compound 9, L-Aspartate]
% Activity Remaining [1, 8]: 112^c %

NC(CP(=O)(O)O)C(=O)O (centres unmarked) [Compound 18, 2-Amino-3-phosphonopropionate]
Inhibition of PEPCK (in words) [1]: fails to inhibit | % Activity Remaining [1, 8]: 94^c %

B1: Rat Liver Cytosolic Phosphoenolpyruvate Carboxykinase (Rattus norvegicus) (protein)
chain: MPPQLHNGLDFSAKVIQGSLDSLPQEVRKFVEGNAQLCQPEYIHICDGSEEEYGRLLAHMQEEGVIRKLKKYDNCWLALTDPRDVARIESKTVIITQEQRDTVPIPKSGQSQLGRWMSEEDFEKAFNARFPGCMKGRTMYVIPFSMGPLGSPLAKIGIELTDSPYVVASMRIMTRMGTSVLEALGDGEFIKCLHSVGCPLPLKKPLVNNWACNPELTLIAHLPDRREIISFGSGYGGNSLLGKKCFALRIASRLAKEEGWLAEHMLILGITNPEGKKKYLAAAFPSACGKTNLAMMNPTLPGWKVECVGDDIAWMKFDAQGNLRAINPENGFFGVAPGTSVKTNPNAIKTIQKNTIFTNVAETSDGGVYWEGIDEPLAPGVTITSWKNKEWRPQDEEPCAHPNSRFCTPASQCPIIDPAWESPEGVPIEGIIFGGRRPAGVPLVYEALSWQHGVFVGAAMRSEATAAAEHKGKVIMHDPFAMRPFFGYNFGKYLAHWLSMAHRPAAKLPKIFHVNWFRKDKNGKFLWPGFGENSRVLEWMFGRIEGEDSAKLTPIGYVPKEDALNLKGLGDVNVEELFGISKEFWEKEVEEIDKYLEDQVNADLPYEIERELRALKQRISQM
Km [5]: 82 µM and 89 µM
